From patent US20100298300A1, “TRIAZOLOPYRAZINE COMPOUNDS USEFUL FOR THE TREATMENT OF DEGENERATIVE & INFLAMMATORY DISEASES” (priority 2006, published 2010)

Key:
[1] = test system: MMP1 expression by activated primary synovial fibroblasts; assay: 'MMP assay': MMP1 expression by complex trigger activated synovial fibroblasts (MMP1 ELISA); assay type: cell-based; details: Homo sapiens, Fibroblast, RASFs, complex trigger, 48 hrs, MMP1 ELISA
MAPKAPK5 = target: T1, MAPKAPK5 (Homo sapiens, UniProt Q8IW41); assay: MAPKAP-K5 assay (FlashPlate kinase assay)
T1 sequence (Q8IW41 1-471 isoform Q8IW41-2): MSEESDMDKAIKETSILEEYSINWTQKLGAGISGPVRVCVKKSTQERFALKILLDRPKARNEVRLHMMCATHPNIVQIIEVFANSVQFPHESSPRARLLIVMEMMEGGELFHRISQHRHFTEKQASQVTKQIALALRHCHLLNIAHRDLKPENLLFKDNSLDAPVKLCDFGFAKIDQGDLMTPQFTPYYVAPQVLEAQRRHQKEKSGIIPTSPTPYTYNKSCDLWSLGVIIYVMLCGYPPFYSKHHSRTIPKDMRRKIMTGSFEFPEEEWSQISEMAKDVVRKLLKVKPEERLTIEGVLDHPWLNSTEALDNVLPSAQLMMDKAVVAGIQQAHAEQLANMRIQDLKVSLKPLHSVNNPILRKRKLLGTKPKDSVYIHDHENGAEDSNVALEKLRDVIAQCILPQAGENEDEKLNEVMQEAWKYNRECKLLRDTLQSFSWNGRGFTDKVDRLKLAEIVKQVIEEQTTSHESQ
Method: MAPKAP-K5 reactions are performed in FlashPlate format using 0.1 or 0.2 μCi 33P-ATP; 0.6 μM ATP; 1 mU MAPKAP-K5; 3 μM MAPKAP-K5 peptide substrate, incubated at room temperature for 30 minutes.
The MAPKAP-K5 kinase reaction is performed in a 384 well polypropylene plate (Matrix Technologies) and then transferred to a streptavidin-coated 384 well flashplate (Perkin-Elmer).
To wells containing 2 μL test compound or standard inhibitor, 13 μL Enzyme mix or diluent are added using a Hydra (Robbins Scientific).
Reactions are started by addition of 10 μL of [2,5×] substrate cocktail using a Multidrop (Thermo-Labsystems), to give final concentrations in the assay of:
Plates are incubated at room temperature for 30 minutes.
Reactions are terminated by the addition of 25 μL EDTA (50 mM) to each well using a Micro-fill (Biotek).
Reactions are transferred to a streptavidin-coated flashplate using a Zymark robotic system. Plates are incubated for 60 minutes at room temperature.
All wells are washed 3 times with 100 μl phosphate buffered saline using a Tecan plate washer.
Radioactivity is determined by scintillation counting of the flashplate (empty wells) on a Packard TopCount.
Enzyme Mix: • Enzyme • 50 mM Tris Hcl (pH 7.5) • 0.1 mM EGTA • 2 mM DTT • 1 mg/mL BSA
Reaction Buffer: • 50 mM Tris Hcl (pH 7.5) • 0.1 mM EGTA • 10 mM Magnesium acetate • 2 mM DTT

Compound | EC50 ([1]; Table 3) | IC50 (MAPKAPK5) | EC50 ([1]; Table 4)
CC(C)N1CCN(c2ccc(Nc3ncc(-c4ccc5c(c4)CNC5=O)n4ncnc34)cc2)C(=O)C1 [Compound 112, 5-(8-(4-(4-Isopropyl-2-oxopiperazin-1-yl)phenylamino)-[1,2,4]triazolo[1,5-a]pyrazin-5-yl)isoindolin-1-one] | > 1000 nM | 101 to 500 nM | 
NC(=O)c1cc(-c2cnc(Nc3ccc(NC(=O)Cc4ccccc4)nc3)c3ncnn23)cs1 [Compound 167, 4-[8-(6-Phenylacetylamino-pyridin-3-ylamino)-[1,2,4]triazolo[1,5-a]pyrazin-5-yl]-thiophene-2-carboxylic acid amide] |  | 501 to 1000 nM | > 1000 nM
CC(C)(C)NC(=O)N1CCC(Nc2ncc(-c3ccc4c(c3)CNC4=O)n3ncnc23)CC1 [Compound 178] | > 1000 nM | 501 to 1000 nM | 
COCCN1CCN(C(=O)c2ccc(Nc3ncc(-c4cn[nH]c4)n4ncnc34)cc2)CC1 [Compound 150] |  | 501 to 1000 nM | > 1000 nM
O=C(NCC1CCCCC1)c1cccc(Nc2ncc(-c3cn[nH]c3)n3ncnc23)c1 [Compound 130] |  | > 1000 nM | > 1000 nM
CC(C)N1CCN(c2ccc(Nc3ncc(-c4cccc5c4CNC5=O)n4ncnc34)cn2)CC1 [Compound 98] | > 1000 nM | > 1000 nM | 
CCN(CCOC)C(=O)c1ccc(Nc2ncc(-c3cn[nH]c3)n3ncnc23)cc1 [Compound 157] |  | > 1000 nM | > 1000 nM
CCN(CC)C(=O)c1cccc(Nc2ncc(-c3cn[nH]c3)n3ncnc23)c1 [Compound 125] |  | > 1000 nM | > 1000 nM
CC(=O)N(C)C1CCN(C(=O)c2ccc(Nc3ncc(-c4cn[nH]c4)n4ncnc34)cc2)C1 (stereo not shown) [Compound 143] |  | 501 to 1000 nM | > 1000 nM
NC(=O)c1cc(-c2cnc(Nc3ccc(NC(=O)c4ccccc4)nc3)c3ncnn23)cs1 [Compound 133] |  | > 1000 nM | > 1000 nM
COc1cc(Nc2ncc(-c3cn[nH]c3)n3ncnc23)ccc1C(=O)NCc1ccc(C)nc1 [Compound 120, 2-Methoxy-N-(6-methylpyridin-3-yl)methyl-4-[5-(1H-pyrazol-4-yl)-[1,2,4]triazolo[1,5-a]pyrazin-8-ylamino]-benzamide] |  | > 1000 nM | > 1000 nM
CN(Cc1ccccc1)C(=O)c1cccc(Nc2ncc(-c3cn[nH]c3)n3ncnc23)c1 [Compound 134, N-Benzyl-N-methyl 3-[5-(1H-pyrazol-4-yl)-[1,2,4]triazolo[1,5-a]pyrazin-8-ylamino]benzamide] |  | > 1000 nM | 501 to 1000 nM
O=C1CNCCN1c1ccc(Nc2ncc(-c3cn[nH]c3)n3ncnc23)cc1 [Compound 100, 1-(4-(5-(1H-Pyrazol-4-yl)-[1,2,4]triazolo[1,5-a]pyrazin-8-ylamino)phenyl)piperazin-2-one] | > 1000 nM | > 1000 nM | 
CC(C)N1CCN(c2ccc(Nc3ncc(-c4cc5c(cn4)C(=O)NC5)n4ncnc34)cc2)CC1 [Compound 173] | > 1000 nM | > 1000 nM | 
CC(C)(C)N1CCN(c2ccc(Nc3ncc(-c4coc(C(N)=O)c4)n4ncnc34)cc2)CC1 [Compound 183] | > 1000 nM | 1 to 100 nM | 
CC(C)N1CCN(c2ccc(Nc3ncc(-c4csc(C(N)=O)c4)n4ncnc34)cn2)CC1 [Compound 55, 4-{8-[6-(4-Isopropylpiperazin-1-yl)pyridin-3-ylamino]-[1,2,4]triazolo[1,5-a]pyrazin-5-yl}thiophene-2-carboxylic acid amide] | 101 to 500 nM | 101 to 500 nM | 
O=C(NCCc1ccc(O)cc1)c1ccc(Nc2ncc(-c3cn[nH]c3)n3ncnc23)cc1 [Compound 151] |  | > 1000 nM | > 1000 nM
O=C1NCc2cc(-c3cnc(NC4CCC4)c4ncnn34)ccc21 [Compound 182] | > 1000 nM | 101 to 500 nM | 
CN1CCN(c2ccc(NC(=O)c3ccc(Nc4ncc(-c5cn[nH]c5)n5ncnc45)cc3)cc2)CC1 [Compound 153] |  | 501 to 1000 nM | > 1000 nM
CC(C)N1CCN(c2ccc(Nc3ncc(-c4cn[nH]c4)n4ncnc34)cn2)CC1 [Compound 43, [6-(4-Isopropylpiperazin-1-yl)pyridin-3-yl]-[5-(1H-pyrazol-4-yl)-[1,2,4]triazolo[1,5-a]pyrazin-8-yl]amine] | > 1000 nM | > 1000 nM | 
CC(C)NC(=O)CN1CCN(C(=O)c2ccc(Nc3ncc(-c4cn[nH]c4)n4ncnc34)cc2)CC1 [Compound 155] |  | 501 to 1000 nM | > 1000 nM

Compound | EC50 ([1]; Table 3) | IC50 (MAPKAPK5) | EC50 ([1]; Table 4)
O=C1NCc2cc(-c3cnc(NCC4CCCCC4)c4ncnn34)ccc21 [Compound 184] | > 1000 nM | 101 to 500 nM | 
CCNC(=O)c1cccc(Nc2ncc(-c3cn[nH]c3)n3ncnc23)c1 [Compound 129, N-Ethyl 3-[5-(1H-pyrazol-4-yl)-[1,2,4]triazolo[1,5-a]pyrazin-8-ylamino]benzamide] |  | > 1000 nM | > 1000 nM
O=C1NCc2oc(-c3cnc(Nc4ccc(N5CCOCC5)cc4)c4ncnn34)cc21 [Compound 111] | > 1000 nM | 101 to 500 nM | 
CCC(COC)NC(=O)c1ccc(Nc2ncc(-c3cn[nH]c3)n3ncnc23)cc1 (stereo not shown) [Compound 149] |  | > 1000 nM | > 1000 nM
O=C(N[C@@H]1CCN(Cc2ccccc2)C1)c1ccc(Nc2ncc(-c3ccc4c(c3)CNC4=O)n3ncnc23)cc1 [Compound 195] |  | 101 to 500 nM | > 1000 nM
O=C(N[C@H]1CCN(Cc2ccccc2)C1)c1ccc(Nc2ncc(-c3ccc4c(c3)CNC4=O)n3ncnc23)cc1 [Compound 196] |  | 101 to 500 nM | > 1000 nM
CC(C)N1CCN(C(=O)c2cccc(Nc3ncc(-c4cn[nH]c4)n4ncnc34)c2)CC1 [Compound 127, (4-Isopropylpiperazin-1-yl)-{3-[5-(1H-pyrazol-4-yl)-[1,2,4]triazolo[1,5-a]pyrazin-8-ylamino]phenyl}methanone] |  | 501 to 1000 nM | > 1000 nM
O=C(Nc1ccc(N2CCOCC2)nc1)c1ccc(Nc2ncc(-c3ccc4c(c3)CNC4=O)n3ncnc23)cc1 [Compound 193] |  | > 1000 nM | > 1000 nM
O=C1CN(c2ccc(Nc3ncc(-c4cn[nH]c4)n4ncnc34)cc2)CCN1 [Compound 177] | > 1000 nM | > 1000 nM | 
O=C(NCCc1ccncc1)c1ccc(Nc2ncc(-c3cn[nH]c3)n3ncnc23)cc1 [Compound 137] |  | 501 to 1000 nM | > 1000 nM
CC(C)N1CCN(c2ccc(Nc3ncc(-c4cccc5c4CNC5=O)n4ncnc34)cc2)CC1 [Compound 97] | > 1000 nM | > 1000 nM | 
O=C(c1cccc(Nc2ncc(-c3cn[nH]c3)n3ncnc23)c1)N1CCCC1 [Compound 126] |  | > 1000 nM | > 1000 nM
OCc1cc(-c2cnc(Nc3ccc(N4CCOCC4)cc3)c3ncnn23)ccn1 [Compound 82] | > 1000 nM | > 1000 nM | 
COC[C@@H]1CCCN1C(=O)c1ccc(Nc2ncc(-c3cn[nH]c3)n3ncnc23)cc1 [Compound 146] |  | > 1000 nM | > 1000 nM
CC(C)N1CCN(c2ccc(Nc3ncc(-c4coc(C(N)=O)c4)n4ncnc34)cc2)CC1 [Compound 88, 4-(8-(4-(4-Isopropylpiperazin-1-yl)phenylamino)-[1,2,4]triazolo[1,5-a]pyrazin-5-yl)furan-2-carboxamide] | 501 to 1000 nM | 1 to 100 nM | 
CC(C)CNC(=O)c1ccc(Nc2ncc(-c3cn[nH]c3)n3ncnc23)cc1 [Compound 164] |  | > 1000 nM | > 1000 nM
CC(C)N1CCN(c2ccc(Nc3ncc(-c4ccc5c(c4)C(C)(C)NC5=O)n4ncnc34)cc2)CC1 [Compound 114, 5-{8-[4-(4-Isopropylpiperazin-1-yl)-phenylamino]-[1,2,4]triazolo[1,5-a]pyrazin-5-yl}-3,3-dimethyl-2,3-dihydroisoindol-1-one] | > 1000 nM | > 1000 nM | 
CSCCNC(=O)c1ccc(Nc2ncc(-c3cn[nH]c3)n3ncnc23)cc1 [Compound 160] |  | 501 to 1000 nM | > 1000 nM
O=C(Nc1cn(Cc2ccccc2)cn1)c1ccc(Nc2ncc(-c3cn[nH]c3)n3ncnc23)cc1 [Compound 198] |  | > 1000 nM | > 1000 nM
CC(C)N(CCNC(=O)c1ccc(Nc2ncc(-c3cn[nH]c3)n3ncnc23)cc1)C(C)C [Compound 162] |  | 501 to 1000 nM | > 1000 nM
